Experiments:
LXFL 1121 = experiment: Cytotoxicity, propidium iodide-based monolayer assay; conditions: 96 h; LXFL 1121, lung large cell carcinoma; four days of treatment; T/C=50%; read-out: Absolute IC50
Protocol: (§1) The cytotoxicity was tested for compounds of the invention on five different cell-lines, namely LXFL 1121, MAXF 401, MMXF L-636, PRXF PC-3M and UXF 1138 which are respectively lung large cell carcinoma, breast adeno carcinoma, multiple myeloma, prostate adeno carcinoma and uterine sarcoma.
Therefore, the compounds have a cytotoxicity against tumor cells and can be used for treating cancer. Materials and Methods Compound Handling A working stock solution of the test compounds was prepared in DMSO at a concentration of 33 mM or 8.25 mM, and small aliquots were stored at −20° C. On each day of an experiment, a frozen aliquot of the working stock solution was thawed and stored at room temperature prior to and during treatment. All liquid handling steps were performed using the Tecan Freedom EVO 200 platform. First, serial 2-fold dilutions of the 33 mM DMSO working stock solution were done in DMSO. […] Briefly, cells were harvested from exponential phase cultures, counted and plated in 96 well flat-bottom microtiter plates at a cell density of 4,000 to 40,000 cells/well dependent on the cell line's growth rate. […] After an incubation period of 1-2 hours at room temperature, fluorescence (FU) was measured using the Enspire Multimode Plate Reader (excitation λ=530 nm, emission λ=620 nm) to quantify the amount of attached viable cells. […]

[1] = system: H1N1 (influenza A/New Caledonia/20/99); experiment: Antiviral effect on A549 cells infected with H1N1; assay type: cell-based, H1N1 A/New Caledonia/20/99 virus; conditions: Influenza A virus, MOI 0.1, 48 h post-infection, MUNANA neuraminidase readout
Procedure, shortened: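 A549 cells dosed with test compounds over a concentration range and infected at once with clinical isolate H1N1 A/New Caledonia/20/99 (MOI 0.1) in DMEM with […] TPCK trypsin, 37 °C. At 48 h, supernatant neuraminidase activity measured with MUNANA substrate (1 h, 37 °C); 4-MU fluorescence at ex 365/em 450 nm.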

MMXF L-363 = experiment: Cytotoxicity, propidium iodide-based monolayer assay; assay type: cell-based; conditions: Homo sapiens, 96 h; MMXF L-363, multiple myeloma; four days of treatment; T/C=50%; read-out: Absolute IC50
Protocol: as §1
(§2) Therefore, the compounds have a cytotoxicity against tumor cells and can be used for treating cancer. Materials and Methods Compound Handling A working stock solution of the test compounds was prepared in DMSO at a concentration of 33 mM or 8.25 mM, and small aliquots were stored at −20° C. On each day of an experiment, a frozen aliquot of the working stock solution was thawed and stored at room temperature prior to and during treatment. All liquid handling steps were performed using the Tecan Freedom EVO 200 platform. First, serial 2-fold dilutions of the 33 mM DMSO working stock solution were done in DMSO. The DMSO dilutions were then diluted 1:22 into cell culture medium in an intermediate dilution plate. Finally, 10 μl taken from the intermediate dilution plate were transferred to 140 μl/well of the final assay plate. Thus, the DMSO serial dilutions were diluted 1:330 with cell culture medium, and the DMSO concentration in the assay was 0.3% v/v. Tumor Cell Lines The cell lines used in this study were derived from solid tumors as well as from hematological malignancies. Cell lines were routinely passaged once or twice weekly and maintained in culture for up to 20 passages. Most cell lines were grown at 37° C. in a humidified atmosphere with 5% CO2 in RPMI 1640 medium (25 mM HEPES, with L-glutamine, #FG1385, Biochrom, Berlin, Germany) supplemented with 10% (v/v) fetal calf serum (Sigma, Taufkirchen, Germany) and 0.05 mg/mL gentamicin (Life Technologies, Karlsruhe, Germany). […] Briefly, cells were harvested from exponential phase cultures, counted and plated in 96 well flat-bottom microtiter plates at a cell density of 4,000 to 40,000 cells/well dependent on the cell line's growth rate. […] After an incubation period of 1-2 hours at room temperature, fluorescence (FU) was measured using the Enspire Multimode Plate Reader (excitation λ=530 nm, emission λ=620 nm) to quantify the amount of attached viable cells. Data Evaluation An assay was considered fully evaluable if the following quality control criteria were fulfilled: • Z′-factor calculated within the assay plate ≥0.5 • control/background ratio >3.0 • coefficient of variation in the growth control wells ≤30% Drug effects were expressed in terms of the percentage of the fluorescence signal, obtained by comparison of the mean signal in the treated wells with the mean signal of the untreated controls (expressed by the test-versus-control value, T/C-value [%]): […]

UXF 1138 = experiment: as above; assay type: cell-based; conditions: 96 h; UXF 1138, uterine sarcoma; four days of treatment; T/C=50%; read-out: Absolute IC50
Protocol: as §1, §2

PRXF PC-3M = experiment: as above; assay type: cell-based; conditions: Homo sapiens, 96 h, prostate adeno carcinoma, four days of treatment, T/C=50%, read-out: Absolute IC50
Protocol: as §1, §2

MAXF 401 = experiment: as above; assay type: cell-based; conditions: Homo sapiens, MAXF401, 96 h; MAXF 401, breast adeno carcinoma; four days of treatment; T/C=50%; read-out: Absolute IC50
Protocol: as §1, §2

O=C(Nc1scc(-c2ccc(Cl)c(F)c2)c1C(=O)O)c1ccccc1 [Compound #2, 2-Benzamido-4-(4-chloro-3-fluoro-phenyl)thiophene-3-carboxylic acid]
IC50 (LXFL 1121): 10.7 µM | IC50 [1]: 0.21 µM | IC50 (MMXF L-363): 11.9 µM | IC50 (UXF 1138): 4.48 µM | IC50 (PRXF PC-3M): 4.74 µM | IC50 (MAXF 401): 6.56 µM

Reference: US11840527B2, “Non-fused thiophene derivatives and their uses” (ENYO PHARMA, priority 2018, dated 2023)
